Read-outs that look alike come from different tables or passages of the source.
Tests used:
[1] = biological target: T1, HIV-1 RT enzyme (wild type) (Human immunodeficiency virus type 1 group M subtype B, UniProt P04585); test: Reverse transcriptase (RT) enzymatic assay (IC50), PicoGreen fluorescence, wild type; assay type: biochemical
T1 construct: The reverse transcriptase (RT) enzyme assay has been adapted to a 96-well microtiter plate format
Summary of the method: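 Enzyme at ≈10 nM in 50 mM Tris/HCl pH 7.8 with 60 mM NaCl, 2 mM MgCl2, 6 mM DTT, 2 mM GSH, 0.02% Chaps; 15 min preincubation with compound at room temperature, then substrate added and run 50 min at 37 °C. EDTA quench; product DNA read by PicoGreen fluorescence.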

[2] = system: HIV-1 resistant mutant K103N/Y181C; test: P24 cellular assay (EC50), data identified with * in Table 9, resistant mutant; assay type: cell-based; details: Human immunodeficiency virus 1, read-out: EC50 K103N/Y181C
Source text: (§1) P24 Cellular Assay (EC50) (Data Identified with * in Table 9).
(§2) The p24 assay is as described in WO 01/96338, the contents of which are herein incorporated by reference.
(§3) The results are listed in Table 9 as IC50(nM) and EC50 (nM).
(§4) Table legend: A=>100; B=100-50; C=<50; NT=not tested

HIV-1 (wild type) = test: P24 cellular assay (EC50), data identified with * in Table 9, wild type; assay type: cell-based; details: Human immunodeficiency virus 1
Source text: as §1, §2, §3, §4

[3] = biological target: T2, HIV-1 RT resistant mutant K103N/Y181C (Human immunodeficiency virus type 1 group M subtype B, UniProt P04585, K690N/Y768C); test: Reverse transcriptase (RT) enzymatic assay (IC50), PicoGreen fluorescence, resistant mutant; assay type: biochemical
T2 construct: The reverse transcriptase (RT) enzyme assay has been adapted to a 96-well microtiter plate format

[4] = RT enzymatic assay, wild type, read-out: IC50 WT

## Cc1cc(Br)cc(C)c1-n1nnnc1SCC(=O)Nc1ccccc1[N+](=O)[O-] [Entry 140]
[1]
  IC50: < 50 nM
[2]
  EC50: < 50 nM
HIV-1 (wild type)
  EC50: < 50 nM
[3]
  IC50: > 100 nM

## Cc1cc(C)c(-n2nnnc2SCC(=O)Nc2ccccc2[N+](=O)[O-])c(C)c1 [Entry 141]
[1]
  IC50: > 100 nM
[2]
  EC50: < 50 nM
HIV-1 (wild type)
  EC50: < 50 nM
[3]
  IC50: > 100 nM

## O=C(CSc1nnnn1-c1cccc2ccccc12)Nc1ccc(C(=O)O)cc1Cl [Entry 236]
[1]
  IC50: 50 to 100 nM
[2]
  EC50: > 100 nM
HIV-1 (wild type)
  EC50: > 100 nM
[3]
  IC50: > 100 nM

## N#Cc1ccc(NC(=O)CSc2nnnn2-c2cccc3ccccc23)c(Cl)c1 [Entry 239]
[1]
  IC50: 50 to 100 nM
[2]
  EC50: > 100 nM
HIV-1 (wild type)
  EC50: < 50 nM
[3]
  IC50: > 100 nM

## CC(Sc1nnnn1-c1cccc2ccccc12)C(=O)Nc1ccccc1[N+](=O)[O-] (stereo not shown) [Entry 301]
[1]
  IC50: 50 to 100 nM
[2]
  EC50: > 100 nM
HIV-1 (wild type)
  EC50: < 50 nM
[3]
  IC50: > 100 nM

## O=C(CSc1nncn1-c1cccc2ccccc12)Nc1ccccc1[N+](=O)[O-] [Entry 402, 2-{{4-(1-Naphthalenyl)-4H-1,2,4-triazol-3-yl}thio}-N-(2-nitrophenyl)acetamide]
[1]; [4]
  IC50: 50 to 100 nM
[2]
  EC50: > 100 nM
HIV-1 (wild type)
  EC50: < 50 nM
[3]
  IC50: > 100 nM

## Cc1cc(C)c(-n2nnnc2SCC(=O)Nc2ccccc2Cl)c(C)c1 [Entry 421]
[1]; [4]
  IC50: < 50 nM
[2]
  EC50: > 100 nM
HIV-1 (wild type)
  EC50: < 50 nM
[3]
  IC50: > 100 nM
